Consider 1 molecule from patent publication US20050014149A1, “Assay for inhibitors of translocases” (priority 2001, published 2005).

This assay addresses SV40 large T antigen (Simian virus 40, UniProt P03070). In words: Homogeneous helicase assay (streptavidin displacement from biotin-labelled oligonucleotide, biotin-4-fluorescein quenching). It is filed as biochemical. Conditions: inhibitor added to the helicase assay; fluorescence ex 485 nm / em 535 nm; FIG. 4. The source says:
The helicase substrate takes the form of an oligonucleotide of length appropriate to the helicase under test that is biotinylated at one end, appropriate to the directionality of the helicase under test. In this example, a single-strand 60-mer with the sequence […] TGCATGATG was labelled with biotin at the 5′-terminus (obtained from Eurogentec, Belgium) so that it could be used as a substrate for the helicase function of the SV40 large T antigen which is a 3′-5′ helicase.
Equal volumes of streptavidin and biotin-labelled oligonucleotide dissolved in reaction buffer (see below) were mixed in such a way that there was at least a four-fold molar excess of oligonucleotide over streptavidin. This is to ensure the saturation of all biotin-binding sites on the streptavidin molecule (4 biotin-binding sites per molecule streptavidin). This mixture was incubated for at least 15 minutes before being used for the assay.
An aliquot of the oligonucleotide/streptavidin complex (oligo/SA) was then mixed with SV40 large T antigen and biotin-4-fluorescein in a suitable buffer, in this case 50 mM Tris-HCl pH 7.5, containing 3 mM MgCl2, 5 mM dithiothreitol and 100 μg/ml bovine serum albumin and pipetted into 384-well microplates.
The enzyme reaction was started by adding an appropriate amount of adenosine triphosphate and incubating the plate at 37° C. […]

Molecules are shown by their SMILES.

Sequence of SV40 large T antigen (P03070 whole entry): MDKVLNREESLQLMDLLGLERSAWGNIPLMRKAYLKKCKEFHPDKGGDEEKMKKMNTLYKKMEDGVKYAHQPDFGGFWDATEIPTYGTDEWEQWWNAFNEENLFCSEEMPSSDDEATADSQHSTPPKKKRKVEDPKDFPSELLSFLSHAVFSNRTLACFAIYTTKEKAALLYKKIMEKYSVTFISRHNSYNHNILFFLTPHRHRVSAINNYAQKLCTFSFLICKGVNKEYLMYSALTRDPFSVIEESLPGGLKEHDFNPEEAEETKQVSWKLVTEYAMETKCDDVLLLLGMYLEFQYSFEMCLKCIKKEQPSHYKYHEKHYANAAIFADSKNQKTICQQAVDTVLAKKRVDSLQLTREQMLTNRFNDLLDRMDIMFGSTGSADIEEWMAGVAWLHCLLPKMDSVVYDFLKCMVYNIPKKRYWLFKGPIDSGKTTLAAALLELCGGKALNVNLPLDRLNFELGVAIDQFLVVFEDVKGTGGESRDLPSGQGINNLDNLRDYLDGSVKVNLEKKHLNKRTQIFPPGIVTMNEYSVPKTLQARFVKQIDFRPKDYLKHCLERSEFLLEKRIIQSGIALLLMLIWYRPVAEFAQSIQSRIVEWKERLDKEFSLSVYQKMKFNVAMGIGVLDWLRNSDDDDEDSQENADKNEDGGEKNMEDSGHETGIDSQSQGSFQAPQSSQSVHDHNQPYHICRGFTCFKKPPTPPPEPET

As for `Cn1cc(NC(=O)c2cc(NC(=O)c3cc(NC=O)cn3C)cn2C)cc1C(=O)NCCC(=N)N` [Distamycin A], the “helicase activity (displacement of the streptavidin from the biotin-labelled substrate)” value was “dose-dependently decrease helicase activity”.
